Results reported in paper PMC7435877 (Molecules, 2020).
Where two headings read alike, the source gives them in different places.

Key:
[1] = system: LoVo/DX; experiment: In vitro antiproliferative activity, SRB assay, doxorubicin-resistant LoVo/DX; format: cell-based, human; conditions: for IC50: 72 h; for Resistance index (RI): RI = IC50 LoVo/DX / IC50 LoVo
[2] = system: LoVo; experiment: In vitro antiproliferative activity, SRB assay, LoVo; format: cell-based, human; conditions: for IC50: 72 h, read-out: Antiproliferative activity IC50, LoVo
[3] = system: A549; experiment: In vitro antiproliferative activity, SRB assay, A549; format: cell-based, human; conditions: for IC50: read-out: Antiproliferative activity IC50, A549
[4] = system: MCF-7; experiment: In vitro antiproliferative activity, SRB assay, MCF-7; format: cell-based, human; conditions: for IC50: read-out: Antiproliferative activity IC50, MCF-7
[5] = system: A549, MCF-7, LoVo, and LoVo/DX cells; experiment: In vitro antiproliferative activity, SRB assay, summary over the tumor cell lines tested; format: cell-based; conditions: Homo sapiens, read-out: IC50, span over all tumor cell lines tested
Text: . Detailed information concerning antiproliferation assay can be found in Supplementary Materials. […]
neutralized with 4M NaOH to pH~10 and extracted four times with EtOAc. The organic layers were combined, washed with brine, dried over Na2SO4, filtered off and evaporated under reduced pressure. The residue was purified using column flash chromatography (silica gel; DCM/MeOH, 20/1 v/v) and next lyophilized from dioxane to give the pure product 3 as a yellow solid with a yield of 73%.
In vitro antiproliferative activity
Cell lines and culturing conditions
Four human cancer cell lines and one murine normal cell line were used to evaluate antiproliferative […]
adenocarcinoma (MCF-7), human colon adenocarcinoma cell lines sensitive and resistant to doxorubicin (LoVo) and (LoVo/DX) respectively, and normal murine embryonic fibroblast cell line (BALB/3T3). The A549 cell line was purchased from the European Collection of Authenticated Cell Cultures (ECACC, Salisbury, UK). The MCF-7, LoVo and LoVo/DX cell lines was purchased from American Type Culture Collection (ATCC, Manassas, VA, USA). All the cell lines are maintained in the Institute of Immunology and Experimental Therapy (IIET), Wroclaw, Poland. […]

[6] = system: BALB/3T3; experiment: In vitro antiproliferative activity, SRB assay, normal fibroblasts BALB/3T3; format: cell-based; conditions: normal murine embryonic fibroblast BALB/3T3, 72 h, mean ± SD
[7] = Homo sapiens, LoVo/DX, read-out: Antiproliferative activity IC50, LoVo/DX, doxorubicin-resistant subline LoVo/DX, 72 h, SRB, mean ± SD
[8] = read-out: Antiproliferative activity IC50, LoVo/DX, doxorubicin-resistant subline LoVo/DX, SRB, mean ± SD

SMILES | IC50 [1, 7] | Resistance index (RI) [1] | IC50 ([2]; Homo sapiens, LoVo) | IC50 ([3]; Homo sapiens, A549, 72 h) | IC50 ([4]; Homo sapiens, MCF7, 72 h) | other results
CCCCCCCCCCN[C@H]1CCc2cc(OC)c(OC)c(OC)c2-c2ccc(NC)c(=O)cc21 [Compound 7] | 99.5 ± 35.5 nM | 2.1 | 46.6 ± 15.5 nM | 88.4 ± 3.2 nM | 75.2 ± 10.8 nM | 
CCCN[C@H]1CCc2cc(OC)c(OC)c(OC)c2-c2ccc(NC)c(=O)cc21 [Compound 5] | 17.2 ± 6.7 nM | 3.5 | 5 ± 0.1 nM | 10.5 ± 0.7 nM | 10.4 ± 0.6 nM | 
CNc1ccc2c(cc1=O)[C@@H](NCCO)CCc1cc(OC)c(OC)c(OC)c1-2 [Compound 9] | 132 ± 37.5 nM | 23.6 | 5.6 ± 1.5 nM | 9.2 ± 2.2 nM | 10.1 ± 1.2 nM | 
CNc1ccc2c(cc1=O)[C@@H](N)CCc1cc(OC)c(OC)c(OC)c1-2 [Compound 3, N-deacetyl-10-methylamino-10-demethoxycolchicine] |  |  | 7.4 ± 2.7 nM | 8.6 ± 3.9 nM | 9.8 ± 4.5 nM | 
CNc1ccc2c(cc1=O)[C@@H](NCCC#N)CCc1cc(OC)c(OC)c(OC)c1-2 [Compound 10] | 51.5 ± 8.6 nM | 25.9 | 2 ± 0.6 nM | 9 ± 1 nM | 7.5 ± 0.7 nM | 
CNc1ccc2c(cc1=O)[C@@H](NCc1cccs1)CCc1cc(OC)c(OC)c(OC)c1-2 [Compound 17] | ≤ 10 nM | 8.9 | 0.9 ± 0.3 nM | 9.4 ± 0.5 nM | 9.3 ± 0.6 nM | IC50 [1, 8]: 7.9 ± 1 nM; Selectivity index (SI), LoVo ([2]; SI = IC50 BALB/3T3 / IC50 LoVo): > 3
CNc1ccc2c(cc1=O)[C@@H](NCc1ccccc1)CCc1cc(OC)c(OC)c(OC)c1-2 [Compound 13] | 6 ± 0.8 nM | 7.0 | 0.9 ± 0.4 nM | 4.6 ± 1.8 nM | 7.3 ± 4.4 nM | 
CNc1ccc2c(cc1=O)[C@@H](NCc1ccncc1)CCc1cc(OC)c(OC)c(OC)c1-2 [Compound 16] | 48.1 ± 14.5 nM | 9.3 | 5.2 ± 1.9 nM | 8.9 ± 1.7 nM | 9.6 ± 1.8 nM | 
CCCCN[C@H]1CCc2cc(OC)c(OC)c(OC)c2-c2ccc(NC)c(=O)cc21 [Compound 6] | 13.3 ± 5.8 nM | 1.7 | 7.8 ± 1.3 nM | 8.1 ± 2.6 nM | 8.7 ± 3.1 nM | 
CNc1ccc2c(cc1=O)[C@@H](NCCC(F)(F)F)CCc1cc(OC)c(OC)c(OC)c1-2 [Compound 12] | 8.2 ± 0.6 nM | 3.6 | 2.3 ± 1.3 nM | 9.5 ± 0.2 nM | 9 ± 1.7 nM | 
CCN[C@H]1CCc2cc(OC)c(OC)c(OC)c2-c2ccc(NC)c(=O)cc21 [Compound 4] | 62 ± 7.5 nM | 8.5 | 7.3 ± 2.5 nM | 9.4 ± 3.2 nM | 8.7 ± 3.3 nM | 
CNc1ccc2c(cc1=O)C(NC(C)=O)CCc1cc(OC)c(OC)c(OC)c1-2 (stereo not shown) [Compound 2, 10-N-methylaminocolchicine] |  |  | 1.2 ± 0.2 nM | 7.2 ± 1.3 nM |  | 
CNc1ccc2c(cc1=O)[C@@H](NCc1ccccc1Cl)CCc1cc(OC)c(OC)c(OC)c1-2 [Compound 14, N-(2-chlorobenzyl)-10-methylaminocolchicine] | 1.6 ± 1 nM |  | 0.1 ± 0.02 nM | 1.1 ± 0.7 nM | 0.7 ± 0.4 nM | Selectivity index (SI), LoVo/DX ([1]; SI = IC50 BALB/3T3 / IC50 LoVo/DX): 2.8; Potency relative to unmodified colchicine 1, LoVo/DX ([1]; times more potent than 1 towards LoVo/DX): approx. 440 times; Selectivity index (SI), A549 ([3]; SI = IC50 BALB/3T3 / IC50 A549): 4.1; IC50 [5]: 0.1 to 1.6 nM; Selectivity index (SI), MCF-7 ([4]; SI = IC50 BALB/3T3 / IC50 MCF-7): 6.1
CNc1ccc2c(cc1=O)[C@@H](NCC(C)C)CCc1cc(OC)c(OC)c(OC)c1-2 [Compound 8] | ≤ 10 nM | 1.1 | 7.8 ± 1 nM | 9.6 ± 1.3 nM | 9.7 ± 1.5 nM | IC50 [1, 8]: 8.5 ± 1.1 nM
CNc1ccc2c(cc1=O)[C@@H](NCc1ccc(O)cc1)CCc1cc(OC)c(OC)c(OC)c1-2 [Compound 15] | 72.2 ± 12.5 nM | 13.9 | 5.2 ± 0.5 nM | 8.9 ± 1.4 nM | 8.5 ± 0.9 nM | 
CNc1ccc2c(cc1=O)[C@@H](NCCCCl)CCc1cc(OC)c(OC)c(OC)c1-2 [Compound 11] | 12.8 ± 3.3 nM | 10.0 | 1.3 ± 0.3 nM | 8.4 ± 2.2 nM | 7.6 ± 2.8 nM | 
N.N.[Cl][Pt][Cl] [Cisplatin, cisplatin, reference compound] |  | 0.9 |  |  |  | IC50 ([1]; doxorubicin-resistant subline LoVo/DX, SRB, mean ± SD, read-out: Antiproliferative activity IC50, LoVo/DX): 5010 ± 1560 nM; IC50 ([2]; human colon adenocarcinoma LoVo, SRB, mean ± SD): 5460 ± 1410 nM; IC50 ([3]; human lung adenocarcinoma A549, 72 h, SRB, mean ± SD): 4920 ± 1850 nM; IC50 ([4]; human breast adenocarcinoma MCF-7, 72 h, SRB, mean ± SD): 5810 ± 2610 nM; IC50 [6]: 3970 ± 995 nM
